In ChEMBL document CHEMBL1155076, “Synthesis and pharmacological evaluation of novel gamma-aminobutyric acid type B (GABAB) receptor agonists as gastroesophageal reflux inhibitors” (J Med Chem, 2008):

Assays:
[1] = Displacement of [3H]GABA from GABABreceptor in rat brain synaptic membranes; type: cell membranes, Membrane
CHO-K1 = test: Intrinsic activity at human recombinant GABAB receptor expressed in CHO-K1 cells assessed as inhibition of intracellular calcium release by FLIPR relative to GABA; type: cell-based
[2] = Agonist activity at human recombinant GABABreceptor expressed in CHO-K1 cells assessed as inhibition of intracellular calcium release by FLIPR; type: functional, cell-based
[3] = Bioavailability in rat; type: ADME, organism-based; details: in vivo
Mus musculus = test: Toxicity in sc dosed mouse assessed as subcutaneous dose producing 2 degC decrease in body temperature; type: organism-based; details: in vivo
[4] = Bioavailability in dog; type: ADME, organism-based, Canis lupus familiaris; details: in vivo
Canis familiaris = organism: Canis familiaris; test: Inhibition of transient lower esophageal sphincter relaxation in dog; type: functional; details: Canis lupus familiaris

SMILES	Ki [1] [µM]	Intrinsic activity (CHO-K1)	EC50 [2] [µM]	bioavailability [3] [%]	Activity (Mus musculus) [µmol/kg]	bioavailability [4] [%]	ED50 (Canis familiaris) [µmol/kg]
NC[C@H](F)C[PH](=O)O	0.07	1	0.25				
CP(=O)(O)C[C@@H](F)CN	0.48	1	1.7				
CP(=O)(O)C[C@H](F)CN	0.0043	1	0.014				
NCC(CC(=O)O)c1ccc(Cl)cc1 (stereo not given)		1					
NC[C@@H](O)C[PH](=O)O	2.1	1	1.1				
NC[C@H](O)C[PH](=O)O	0.05	1	0.13	78	> 8000	88	7
NCCC[PH](=O)O	0.015	1	0.019				
NC[C@@H](F)C[PH](=O)O [LESOGABERAN]	0.0051	1	0.00864				
CP(=O)(O)CCCN		1					
NCC(O)C[PH](=O)O (stereo not given)	0.094	1	0.22				
CP(=O)(O)C[C@@H](O)CN	0.18	1	0.15		5.4		0.17
CP(=O)(O)CC(F)CN (stereo not given)	0.014	1	0.023				
CP(=O)(O)C[C@H](O)CN	0.84	1	0.6				
NCC(F)C[PH](=O)O (stereo not given)	0.01	1	0.015				
CP(=O)(O)CC(=O)CN	0.2	1	0.27				
NCC(=O)C[PH](=O)O	0.048	1	0.081				
